Laboratory results published in ChEMBL document CHEMBL1287800, “Pyridylmethylthio derivatives as VEGF inhibitors. Part 1” (Bioorg Med Chem Lett, 2010).

Test system: HUVEC
Assay: Inhibition of VEGF-induced HUVEC proliferation treated 1 hr before VEGF challenge measured 3 days by WST-8 assay
Type: functional, cell-based
Settings: Homo sapiens

With `Clc1ccc(Nc2nnc(Cc3ccncc3)c3ccccc23)cc1` [VATALANIB] the IC50 was 33 nM.
